PubChem BioAssay AID248 (DTP/NCI, 2004)
Values joined by “and” are separate entries in the source; they are usually repeats but may differ in a detail not shown here. Equal values may be shown once. Inconclusive results and toxic doses are left out.

Tested on: L1210 leukemia ip in BDF1 mice, survival T/C
Experiment: NCI In Vivo Anticancer Drug Screen. Data for tumor model L1210 Leukemia (intraperitoneal) in B6D2F1 (BDF1) mice
Conditions: endpoint: mean survival time, higher = longer survival
Outline: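 Tumor cells were implanted, animals were treated, and survival was followed. The result divides the treated measurement by the vehicle-control measurement.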

[1] = dose: 100.0 mg/kg/injection, schedule: Q01DX001 (ip), vehicle: saline with Tween-80
[2] = dose: 400.0 mg/kg/injection, schedule: Q01DX001 (ip), vehicle: saline with Tween-80
[3] = dose: 100.0 mg/kg/injection, schedule: Q01DX009 (ip), vehicle: Klucel (hydroxypropylcellulose) (HPC)
[4] = dose: 200.0 mg/kg/injection, schedule: Q01DX009 (ip), vehicle: Klucel (hydroxypropylcellulose) (HPC)
[5] = dose: 400.0 mg/kg/injection, schedule: Q01DX009 (ip), vehicle: Klucel (hydroxypropylcellulose) (HPC)
[6] = dose: 100.0 mg/kg/injection, schedule: Q01DX001 (ip), vehicle: carboxymethylcellulose (CMC)
[7] = dose: 200.0 mg/kg/injection, schedule: Q01DX001 (ip), vehicle: carboxymethylcellulose (CMC)
[8] = dose: 400.0 mg/kg/injection, schedule: Q01DX001 (ip), vehicle: carboxymethylcellulose (CMC)
[9] = dose: 100.0 mg/kg/injection, schedule: Q04DX003 (ip), vehicle: saline with Tween-80
[10] = dose: 400.0 mg/kg/injection, schedule: Q04DX003 (ip), vehicle: saline with Tween-80
[11] = dose: 50.0 mg/kg/injection, schedule: Q01DX001 (ip), vehicle: saline
[12] = dose: 100.0 mg/kg/injection, schedule: Q01DX001 (ip), vehicle: saline
[13] = dose: 200.0 mg/kg/injection, schedule: Q01DX001 (ip), vehicle: saline
[14] = dose: 400.0 mg/kg/injection, schedule: Q01DX001 (ip), vehicle: saline

## Nc1nc(N)c2nc(CNc3ccc(CC(=O)NC(CC(=O)O)C(=O)O)cc3)cnc2n1 (stereo not given)
dose: 25.0 mg/kg/injection, schedule: Q01DX009 (ip), vehicle: sodium bicarbonate
  T/C: 104 % of control
dose: 50.0 mg/kg/injection, schedule: Q01DX009 (ip), vehicle: sodium bicarbonate
  T/C: 106 % of control
dose: 100.0 mg/kg/injection, schedule: Q01DX009 (ip), vehicle: sodium bicarbonate
  T/C: 108 % of control

## COC(=O)c1cc(OC)c(OC)c(OC)c1
[1]
  T/C: 100 % of control
dose: 200.0 mg/kg/injection, schedule: Q01DX001 (ip), vehicle: saline with Tween-80
  T/C: 98 % of control
[2]
  T/C: 96 % of control

## CC(C)CC(N=C(NC(CC(C)C)C(=O)O)c1ccccc1)C(=O)O (stereo not given)
[3]
  T/C: 108 % of control
[4]
  T/C: 105 % of control
[5]
  T/C: 95 % of control

## CC1(O)C(=O)C=Cc2ccccc21 (stereo not given)
dose: 100.0 mg/kg/injection, schedule: Q01DX001 (ip), vehicle: Klucel (hydroxypropylcellulose) (HPC)
  T/C: 93 % of control
dose: 200.0 mg/kg/injection, schedule: Q01DX001 (ip), vehicle: Klucel (hydroxypropylcellulose) (HPC)
  T/C: 102 % of control
dose: 400.0 mg/kg/injection, schedule: Q01DX001 (ip), vehicle: Klucel (hydroxypropylcellulose) (HPC)
  T/C: 96 % of control

## Cn1ncc2c(N)nc(-c3ccccc3)nc21
dose: 100.0 mg/kg/injection, schedule: Q04DX003 (ip), vehicle: other
  T/C: 97 % of control

## OC1(c2ccccc2)c2cscc2C(O)(c2ccccc2)c2c(Cl)sc(Cl)c21 (stereo not given)
[1]
  T/C: 91 % of control
[2]
  T/C: 87 % of control

## c1ncc(OCCN2CC2)nc1OCCN1CC1
dose: 0.12 mg/kg/injection, schedule: Q01DX009 (ip), vehicle: carboxymethylcellulose (CMC)
  T/C: 102 % of control
dose: 0.25 mg/kg/injection, schedule: Q01DX009 (ip), vehicle: carboxymethylcellulose (CMC)
  T/C: 108 % of control
dose: 0.5 mg/kg/injection, schedule: Q01DX009 (ip), vehicle: carboxymethylcellulose (CMC)
  T/C: 102 % of control
dose: 0.5 mg/kg/injection, schedule: Q01DX009 (ip), vehicle: saline
  T/C: 97 % of control
dose: 1.0 mg/kg/injection, schedule: Q01DX009 (ip), vehicle: carboxymethylcellulose (CMC)
  T/C: 95 % of control
dose: 1.0 mg/kg/injection, schedule: Q01DX009 (ip), vehicle: saline
  T/C: 97 % of control
dose: 3.0 mg/kg/injection, schedule: Q01DX009 (ip), vehicle: saline
  T/C: 156 % of control
dose: 11.1 mg/kg/injection, schedule: Q01DX001 (ip), vehicle: carboxymethylcellulose (CMC)
  T/C: 124 % of control
dose: 11.1 mg/kg/injection, schedule: Q01DX001 (ip), vehicle: saline
  T/C: 120 % of control

## C=C(C)C[N+]1(CC)CCN=C1CCCCCCCCCCCCCCCCC (stereo not given)
dose: 0.31 mg/kg/injection, schedule: Q01DX Z (ip), vehicle: saline
  T/C: 100 % of control
dose: 0.47 mg/kg/injection, schedule: Q01DX Z (ip), vehicle: saline
  T/C: 96 % of control
dose: 0.7 mg/kg/injection, schedule: Q01DX Z (ip), vehicle: saline
  T/C: 102 % of control
dose: 1.05 mg/kg/injection, schedule: Q01DX Z (ip), vehicle: saline
  T/C: 96 % of control

## COc1ccc(-c2cc(-c3ccccc3)[nH]c(=O)c2N(C)C)cc1
[6]
  T/C: 97 % of control
[7]
  T/C: 91 % of control
[8]
  T/C: 97 % of control

## CCCCN(c1ccccc1)c1ncnc2c1cnn2C
dose: 50.0 mg/kg/injection, schedule: Q01DX009 (ip), vehicle: saline with Tween-80
  T/C: 100 % of control
dose: 100.0 mg/kg/injection, schedule: Q01DX009 (ip), vehicle: saline with Tween-80
  T/C: 102 % of control and 104 % of control
[9]
  T/C: 97 % of control
dose: 200.0 mg/kg/injection, schedule: Q01DX009 (ip), vehicle: saline with Tween-80
  T/C: 98 % of control and 105 % of control
dose: 200.0 mg/kg/injection, schedule: Q04DX003 (ip), vehicle: saline with Tween-80
  T/C: 96 % of control
[10]
  T/C: 94 % of control

## COc1cc2c(cc1NC(=O)N(CCCl)N=O)-c1ccccc1C2
dose: 22.0 mg/kg/injection, schedule: Q01DX009 (ip), vehicle: carboxymethylcellulose (CMC)
  T/C: 150 % of control
dose: 33.0 mg/kg/injection, schedule: Q01DX009 (ip), vehicle: carboxymethylcellulose (CMC)
  T/C: 152 % of control
dose: 50.0 mg/kg/injection, schedule: Q01DX009 (ip), vehicle: carboxymethylcellulose (CMC)
  T/C: 169 % of control
dose: 75.0 mg/kg/injection, schedule: Q01DX009 (ip), vehicle: carboxymethylcellulose (CMC)
  T/C: 152 % of control
dose: 118.0 mg/kg/injection, schedule: Q01DX009 (ip), vehicle: carboxymethylcellulose (CMC)
  T/C: 250 % of control
dose: 177.0 mg/kg/injection, schedule: Q01DX001 (ip), vehicle: other
  T/C: 123 % of control
dose: 177.0 mg/kg/injection, schedule: Q01DX009 (ip), vehicle: carboxymethylcellulose (CMC)
  T/C: 256 % of control
dose: 266.0 mg/kg/injection, schedule: Q01DX001 (ip), vehicle: carboxymethylcellulose (CMC)
  T/C: 151 % of control
dose: 266.0 mg/kg/injection, schedule: Q01DX001 (ip), vehicle: other
  T/C: 155 % of control
dose: 266.0 mg/kg/injection, schedule: Q01DX009 (ip), vehicle: carboxymethylcellulose (CMC)
  T/C: 284 % of control
[8]
  T/C: 173 % of control
dose: 400.0 mg/kg/injection, schedule: Q01DX001 (ip), vehicle: other
  T/C: 170 % of control
dose: 400.0 mg/kg/injection, schedule: Q01DX009 (ip), vehicle: carboxymethylcellulose (CMC)
  T/C: 196 % of control
dose: 600.0 mg/kg/injection, schedule: Q01DX001 (ip), vehicle: carboxymethylcellulose (CMC)
  T/C: 196 % of control
dose: 600.0 mg/kg/injection, schedule: Q01DX001 (ip), vehicle: other
  T/C: 164 % of control

## O=C1CC(Cc2n[nH]c3c2CCCC3)CC(=O)N1
[6]
  T/C: 100 % of control
[7]
  T/C: 95 % of control
[8]
  T/C: 95 % of control

## CC1OC2COC(C)OC2C(C(O)COC(c2ccccc2)(c2ccccc2)c2ccccc2)O1 (stereo not given)
[3]
  T/C: 93 % of control
dose: 100.0 mg/kg/injection, schedule: Q04DX003 (ip), vehicle: Klucel (hydroxypropylcellulose) (HPC)
  T/C: 98 % of control
[4]
  T/C: 95 % of control
dose: 200.0 mg/kg/injection, schedule: Q04DX003 (ip), vehicle: Klucel (hydroxypropylcellulose) (HPC)
  T/C: 97 % of control
[5]
  T/C: 101 % of control
dose: 400.0 mg/kg/injection, schedule: Q04DX003 (ip), vehicle: Klucel (hydroxypropylcellulose) (HPC)
  T/C: 95 % of control

## N#C/C(=C(/Cc1ccc(F)cc1)NP(=O)(c1ccccc1)c1ccccc1)c1ccc(F)cc1
dose: 100.0 mg/kg/injection, schedule: Q01DX001 (ip), vehicle: steriod suspending solution
  T/C: 101 % of control
dose: 200.0 mg/kg/injection, schedule: Q01DX001 (ip), vehicle: steriod suspending solution
  T/C: 90 % of control

## Cc1c(C)c2c(c(C)c1O)CCC(C)(CCCC(C)CCCC(C)CCCC(C)C)O2 (stereo not given)
dose: 31.2 mg/kg/injection, schedule: Q01DX009 (ip), vehicle: carboxymethylcellulose (CMC)
  T/C: 107 % of control
dose: 62.5 mg/kg/injection, schedule: Q01DX009 (ip), vehicle: carboxymethylcellulose (CMC)
  T/C: 101 % of control
[9]
  T/C: 91 % of control
dose: 125.0 mg/kg/injection, schedule: Q01DX009 (ip), vehicle: carboxymethylcellulose (CMC)
  T/C: 100 % of control
dose: 202.0 mg/kg/injection, schedule: Q04DX003 (ip), vehicle: saline with Tween-80
  T/C: 91 % of control
dose: 250.0 mg/kg/injection, schedule: Q01DX009 (ip), vehicle: carboxymethylcellulose (CMC)
  T/C: 100 % of control
[10]
  T/C: 93 % of control

## O=C1CCC(=O)N1[N+](=O)[O-]
[11]
  T/C: 95 % of control and 89 % of control
[12]
  T/C: 97 % of control and 101 % of control
[13]
  T/C: 103 % of control and 107 % of control

## CC(C)(Br)C1CC(=O)C(C)(Br)C(Br)C1 (stereo not given)
[12]
  T/C: 98 % of control
[13]
  T/C: 101 % of control
[14]
  T/C: 101 % of control

## O=C1CCCC1C(=O)Nc1cccc2ccccc12 (stereo not given)
[11]
  T/C: 97 % of control
[12]
  T/C: 103 % of control
[13]
  T/C: 97 % of control
[14]
  T/C: 97 % of control
